# From patent US8759334B2, “Compounds useful for the treatment of metabolic and inflammatory diseases” (Galapagos NV, priority 2011, dated 2014)
# Target: T1, GPR43 (Homo sapiens, UniProt O15552)
# T1 construct: expressed in transfected cells
# T1 sequence (O15552 1-330): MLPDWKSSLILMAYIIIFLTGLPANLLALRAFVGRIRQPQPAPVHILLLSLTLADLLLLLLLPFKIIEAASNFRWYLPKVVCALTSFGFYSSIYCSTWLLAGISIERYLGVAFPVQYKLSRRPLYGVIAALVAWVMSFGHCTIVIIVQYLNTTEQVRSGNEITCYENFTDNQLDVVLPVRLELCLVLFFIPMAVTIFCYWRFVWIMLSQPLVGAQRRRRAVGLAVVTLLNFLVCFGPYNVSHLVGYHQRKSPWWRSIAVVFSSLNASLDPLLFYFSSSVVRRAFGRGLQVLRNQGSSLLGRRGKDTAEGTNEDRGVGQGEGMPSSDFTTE
# Experiment: Calcium mobilization assay with probenecid
# Format: cell-based
# Conditions: GPR43 stably expressing cells; triggered with sodium acetate at EC80; 2.5 mM probenecid; read-out: GPR43 assay with probenicid IC50
# Method in brief: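 […] being added at rising concentrations to a GPR43 stable line. Before this, cells were dye-loaded (Calcium 4 with 2.5 mM probenecid) for 2 h at 37 °C after overnight plating.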
row,Compound,IC50
1,"CC1(C(=O)N(CCCS(N)(=O)=O)Cc2ccc(Cl)cc2)CCN1C(=O)Cc1csc2ccccc12 (centres unmarked) [Compound 181, 1-(2-Benzo[b]thiophen-3-yl-acetyl)-2-methyl-azetidine-2-carboxylic acid (4-chloro-benzyl)-(3-sulfamoyl-propyl)-amide]",0.01 to 100 nM
2,"CC1(C(=O)N(CCCC(=O)O)Cc2ccc3scnc3c2)CCN1C(=O)Cc1csc2ccccc12 (centres unmarked) [Compound 183, 4-{[1-(2-Benzo[b]thiophen-3-yl-acetyl)-2-methyl-azetidine-2-carbonyl]-benzothiazol-5-ylmethyl-amino}-butyric acid]",0.01 to 100 nM
3,"CC1(C(=O)N(CCCC(=O)O)Cc2ccc3scnc3c2)CCN1C(=O)c1csc2ccccc12 (centres unmarked) [Compound 184, 4-{[1-(Benzo[b]thiophene-3-carbonyl)-2-methyl-azetidine-2-carbonyl]-benzothiazol-5-ylmethyl-amino}-butyric acid]",101 to 500 nM
4,"Cc1cc(C)cc(CC(=O)N2CCC2(C)C(=O)N(CCCC(=O)O)Cc2ccc3scnc3c2)c1 (centres unmarked) [Compound 185, 4-(Benzothiazol-5-ylmethyl-{1-[2-(3,5-dimethyl-phenyl)-acetyl]-2-methyl-azetidine-2-carbonyl}-amino)-butyric acid]",501 to 1000 nM
5,"CNS(=O)(=O)CCCN(Cc1ccc(Cl)cc1)C(=O)C1(C)CCN1C(=O)c1csc2ccccc12 (centres unmarked) [Compound 186, 1-(Benzo[b]thiophene-3-carbonyl)-2-methyl-azetidine-2-carboxlic acid (4-chloro-benzyl)-(3-methylsulfamoyl-propyl)-amide]",101 to 500 nM
6,"CC1(C(=O)N(CCC(=O)O)Cc2ccc3cn[nH]c3c2)CCN1C(=O)c1csc2ccccc12 (centres unmarked) [Compound 188, 3-[[1-(Benzo[b]thiophene-3-carbonyl)-2-methyl-azetidine-2-carbonyl]-(1H-indazol-6-ylmethyl)-amino]-propionic acid]",501 to 1000 nM
7,"CNS(=O)(=O)CCCN(Cc1ccc(Cl)cc1)C(=O)C1(C)CCN1C(=O)Cc1csc2ccccc12 (centres unmarked) [Compound 189, 1-(2-Benzo[b]thiophen-3-yl-acetyl)-2-methyl-azetidine-2-carboxylic acid (4-chloro-benzyl)-(3-methylsulfamoyl-propyl)-amide]",0.01 to 100 nM
8,"CNS(=O)(=O)CCCN(Cc1cccc(Cl)c1)C(=O)C1(C)CCN1C(=O)c1csc2ccccc12 (centres unmarked) [Compound 190, 1-(Benzo[b]thiophene-3-carbonyl)-2-methyl-azetidine-2-carboxylic acid (3-chloro-benzyl)-(3-methylsulfamoyl-propyl)-amide]",0.01 to 100 nM
9,"CC1(C(=O)N(CCS(N)(=O)=O)Cc2ccc(Cl)cc2)CCN1C(=O)c1csc2ccccc12 (centres unmarked) [Compound 192, 1-(Benzo[b]thiophene-3-carbonyl)-2-methyl-azetidine-2-carboxylic acid (4-chloro-benzyl)-(2-sulfamoyl-ethyl)-amide]",0.01 to 100 nM
10,"CNS(=O)(=O)CCN(Cc1ccc(Cl)cc1)C(=O)C1(C)CCN1C(=O)c1csc2ccccc12 (centres unmarked) [Compound 193, 1-(Benzo[b]thiophene-3-carbonyl)-2-methyl-azetidine-2-carboxylic acid (4-chloro-benzyl)-(2-methylsulfamoyl-ethyl)-amide]",101 to 500 nM
11,"Cc1cc(C)cc(OC(=O)N2CCC2(C)C(=O)N(CCCC(=O)O)Cc2ccc(Cl)cc2)c1 (centres unmarked) [Compound 196, 2-[(3-Carboxy-propyl)-(4-chloro-benzyl)-carbamoyl]-2-methyl-azetidine-1-carboxylic acid 3,5-dimethyl-phenyl ester]",0.01 to 100 nM
12,"C[C@H](c1ccc(Cl)cc1)N(CCCC(=O)O)C(=O)[C@@]1(C)CCN1C(=O)c1csc2ccccc12 [Compound 197, 4-{[(R)-1-(Benzo[b]thiophene-3-carbonyl)-2-methyl-azetidine-2-carbonyl]-[(R)-1-(4-chloro-phenyl)-ethyl]-amino}-butyric acid]",501 to 1000 nM
13,"O=C(O)CCCN(Cc1cccc(Cl)c1)C(=O)C1(Cc2ccccc2)CCN1C(=O)c1csc2ccccc12 (centres unmarked) [Compound 199, 4-[[1-(Benzo[b]thiophene-3-carbonyl)-2-benzyl-azetidine-2-carbonyl]-(3-chloro-benzyl)-amino]-butyric acid]",101 to 500 nM
14,"Cc1cc(C)cc(NC(=O)N2CCC2(C)C(=O)N(CCCC(=O)O)Cc2ccc(Cl)cc2)c1 (centres unmarked) [Compound 200, 4-{(4-chloro-benzyl)-[1-(3,5-dimethyl-phenylcarbamoyl)-2-methyl-azetidine-2-carbonyl]-amino}-butyric acid]",> 1000 nM
15,"Cc1cc(C)cc(N(C)C(=O)N2CCC2(C)C(=O)N(CCCC(=O)O)Cc2ccc(Cl)cc2)c1 (centres unmarked) [Compound 201, 4-((4-Chloro-benzyl)-{1-[(3,5-dimethyl-phenyl)-methyl-carbamoyl]-2-methyl-azetidine-2-carbonyl}-amino)-butyric acid]",> 1000 nM
16,"CC1(C(=O)N(CCCC(=O)O)Cc2ccc(Cl)cc2)CCN1C(=O)Oc1ccccc1Cl (centres unmarked) [Compound 202, 2-[(3-Carboxy-propyl)-(4-chloro-benzyl)-carbamoyl]-2-methyl-azetidine-1-carboxylic acid 2-chloro-phenyl ester]",> 1000 nM
17,"CC(C)C1(C(=O)N(CCCC(=O)O)Cc2cccc(Cl)c2)CCN1C(=O)c1csc2ccccc12 (centres unmarked) [Compound 203, 4-[[1-(Benzo[b]thiophene-3-carbonyl)-2-isopropyl-azetidine-2-carbonyl]-(3-chloro-benzyl)-amino]-butyric acid]",0.01 to 100 nM
18,"CCCC1(C(=O)N(CCCC(=O)O)Cc2cccc(Cl)c2)CCN1C(=O)c1csc2ccccc12 (centres unmarked) [Compound 204, 4-[[1-(Benzo[b]thiophene-3-carbonyl)-2-propyl-azetidine-2-carbonyl]-(3-chloro-benzyl)-amino]-butyric acid]",0.01 to 100 nM
19,"Cc1ccccc1OC(=O)N1CCC1(C)C(=O)N(CCCC(=O)O)Cc1ccc(Cl)cc1 (centres unmarked) [Compound 205, 2-[(3-Carboxy-propyl)-(4-chloro-benzyl)-carbamoyl]-2-methyl-azetidine-1-carboxylic acid o-tolyl ester]",> 1000 nM
20,"CC1(C(=O)N(CCCS(N)(=O)=O)c2ccc(Cl)cc2)CCN1C(=O)c1csc2ccccc12 (centres unmarked) [Compound 206, 1-(Benzo[b]thiophene-3-carbonyl)-2-methyl-azetidine-2-carboxylic acid (4-chloro-phenyl)-(3-sulfamoyl-propyl)-amide]",0.01 to 100 nM
21,"C[C@]1(C(=O)N(CCCC(=O)NS(C)(=O)=O)Cc2cccc(Cl)c2)CCN1C(=O)c1csc2ccccc12 [Compound 207, (R)-1-(benzo[b]thiophene-3-carbonyl)-N-(3-chlorobenzyl)-2-methyl-N-(4-(methylsulfonamido)-4-oxobutyl)azetidine-2-carboxamide]",0.01 to 100 nM
22,"CCC1(C(=O)N(CCCS(N)(=O)=O)Cc2cccc(Cl)c2)CCN1C(=O)c1csc2ccccc12 (centres unmarked) [Compound 208, 1-(benzo[b]thiophene-3-carbonyl)-N-(3-chlorobenzyl)-2-ethyl-N-(3-sulfamoylpropyl)azetidine-2-carboxamide]",0.01 to 100 nM
23,"C[C@@H](c1ccc(Cl)cc1)N(CCCS(N)(=O)=O)C(=O)C1(C)CCN1C(=O)c1csc2ccccc12 (stereo partly drawn) [Compound 209, 1-(benzo[b]thiophene-3-carbonyl)-N-((S)-1-(4-chlorophenyl)ethyl)-2-methyl-N-(3-sulfamoylpropyl)azetidine-2-carboxamide]",101 to 500 nM
